In this experiment the target is CDK2/Cyclin E1 (Homo sapiens (Human), UniProt P24941). As to the kind of experiment: CDK2/Cyclin E1 HTRF enzyme activity assay (Example A). Particulars: 1 mM ATP. Format: biochemical. As to the method: Assays were conducted in white 384-well polystyrene plates in a final reaction volume of 8 μL. […] HTRF signals were read after 1 hour at room temperature on a PHERAstar FS plate reader (BMG Labtech). Data was analyzed with IDBS XLFit and GraphPad Prism 5.0 software using a three or four parameter dose response curve to determine IC50 for each compound.
Background: In TR-FRET formats the signal depends on donor and acceptor labels being close together.

SMILES strings stand for the structures.

For 26 compounds, IC50 results are on record in patent publication US11427567B2, “Imidazolyl pyrimidinylamine compounds as CDK2 inhibitors” (Incyte Corporation, priority 2019, dated 2022).

As a reminder, the IC50 is the concentration that inhibits the measured activity by half.

Regarding `O=S(=O)(NC1CC1)N1CCC(Nc2ncc(C(F)(F)F)c(-c3cn(-c4ccc(CN5CCC5)cc4Cl)cn3)n2)CC1` [Example 230, 4-((4-(1-(4-(Azetidin-1-ylmethyl)-2-chlorophenyl)-1H-imidazol-4-yl)-5-(trifluoromethyl)pyrimidin-2-yl)amino)-N-cyclopropylpiperidine-1-sulfonamide], the IC50 is ≤ 50 nM.
As for `CS(=O)(=O)N1CCC(Nc2ncc(C(F)(F)F)c(-c3cn(-c4ccc(CO)cc4Cl)cn3)n2)CC1` [Example 231, (3-Chloro-4-(4-(2-((1-(methylsulfonyl)piperidin-4-yl)amino)-5-(trifluoromethyl)pyrimidin-4-yl)-1H-imidazol-1-yl)phenyl)methanol], the figure is ≤ 50 nM; as for `CS(=O)(=O)N1CCC(Nc2ncc(C(F)(F)F)c(-c3cn(-c4cccc(C#N)c4CO)cn3)n2)CC1` [Example 232, 2-(Hydroxymethyl)-3-(4-(2-((1-(methylsulfonyl)piperidin-4-yl)amino)-5-(trifluoromethyl)pyrimidin-4-yl)-1H-imidazol-1-yl)benzonitrile], ≤ 50 nM; as for `CS(=O)(=O)N1CCC(Nc2ncc(C(F)(F)F)c(-c3cn(-c4cccc5c4COC5=O)cn3)n2)CC1` [Example 233, 4-(4-(2-((1-(Methylsulfonyl)piperidin-4-yl)amino)-5-(trifluoromethyl)pyrimidin-4-yl)-1H-imidazol-1-yl)isobenzofuran-1(3H)-one], ≤ 50 nM.
With `C[C@@H]1CN(S(C)(=O)=O)CC[C@@H]1Nc1ncc(C(F)(F)F)c(-c2cn(-c3ccc(CO)cc3Cl)cn2)n1` [Example 234, (3-Chloro-4-(4-(2-(((3R,4S)-3-methyl-1-(methylsulfonyl)piperidin-4-yl)amino)-5-(trifluoromethyl)pyrimidin-4-yl)-1H-imidazol-1-yl)phenyl)methanol], the IC50 is ≤ 50 nM.
In the case of `CS(=O)(=O)N1CCC(Nc2ncc(C(F)(F)F)c(-c3cn(-c4ccc(C#N)cc4CO)cn3)n2)CC1` [Example 235, 3-(Hydroxymethyl)-4-(4-(2-((1-(methylsulfonyl)piperidin-4-yl)amino)-5-(trifluoromethyl)pyrimidin-4-yl)-1H-imidazol-1-yl)benzonitrile] it was ≤ 50 nM.
Take `CS(=O)(=O)N1CCC(Nc2ncc(C(F)(F)F)c(-c3cn(-c4ccc(C#N)nc4CO)cn3)n2)CC1` [Example 236, 6-(Hydroxymethyl)-5-(4-(2-((1-(methylsulfonyl)piperidin-4-yl)amino)-5-(trifluoromethyl)pyrimidin-4-yl)-1H-imidazol-1-yl)picolinonitrile]: the IC50 is ≤ 50 nM.
As for `CS(=O)(=O)N1CCC(Nc2ncc(C(F)(F)F)c(-c3cn(-c4ccccc4CO)cn3)n2)CC1` [Example 237, (2-(4-(2-((1-(Methylsulfonyl)piperidin-4-yl)amino)-5-(trifluoromethyl)pyrimidin-4-yl)-1H-imidazol-1-yl)phenyl)methanol], the figure is ≤ 50 nM.
In the case of `CS(=O)(=O)N1CCC(Nc2ncc(C(F)(F)F)c(-c3cn(-c4ccc(Cn5ccnc5)cc4Cl)cn3)n2)CC1` [Example 238, 4-(1-(4-((H-Imidazol-1-yl)methyl)-2-chlorophenyl)-1H-imidazol-4-yl)-N-(1-(methylsulfonyl)piperidin-4-yl)-5-(trifluoromethyl)pyrimidin-2-amine] it was ≤ 50 nM; in that of `CS(=O)(=O)N1CCC(Nc2ncc(C(F)(F)F)c(-c3cn(-c4ccc(Cn5cnnc5)cc4Cl)cn3)n2)CC1` [Example 239, 4-(1-(4-((4H-1,2,4-Triazol-4-yl)methyl)-2-chlorophenyl)-1H-imidazol-4-yl)-N-(1-(methylsulfonyl)piperidin-4-yl)-5-(trifluoromethyl)pyrimidin-2-amine], ≤ 50 nM.
As for `CS(=O)(=O)N1CCC(Nc2ncc(C(F)(F)F)c(-c3cn(-c4ccc(Cn5cncn5)cc4Cl)cn3)n2)CC1` [Example 240, 4-(1-(4-((1H-1,2,4-Triazol-1-yl)methyl)-2-chlorophenyl)-1H-imidazol-4-yl)-N-(1-(methylsulfonyl)piperidin-4-yl)-5-(trifluoromethyl)pyrimidin-2-amine], the figure is ≤ 50 nM.
As to `CS(=O)(=O)N1CCC(Nc2ncc(C(F)(F)F)c(-c3cn(-c4ccc(Cn5nccn5)cc4Cl)cn3)n2)CC1` [Example 241, 4-(1-(4-((2H-1,2,3-Triazol-2-yl)methyl)-2-chlorophenyl)-1H-imidazol-4-yl)-N-(1-(methylsulfonyl)piperidin-4-yl)-5-(trifluoromethyl)pyrimidin-2-amine], the IC50 is ≤ 50 nM.
Turning to `CS(=O)(=O)N1CCC(Nc2ncc(C(F)(F)F)c(-c3cn(-c4ccc(Cn5ccnn5)cc4Cl)cn3)n2)CC1` [Example 242, 4-(1-(4-((1H-1,2,3-Triazol-1-yl)methyl)-2-chlorophenyl)-1H-imidazol-4-yl)-N-(1-(methylsulfonyl)piperidin-4-yl)-5-(trifluoromethyl)pyrimidin-2-amine], the half-maximal inhibitory concentration (IC50) was ≤ 50 nM.
As to `CS(=O)(=O)N1CCC(Nc2ncc(C(F)(F)F)c(-c3cn(-c4ccc(Cn5ncnn5)cc4Cl)cn3)n2)CC1` [Example 243, 4-(1-(4-((2H-Tetrazol-2-yl)methyl)-2-chlorophenyl)-1H-imidazol-4-yl)-N-(1-(methylsulfonyl)piperidin-4-yl)-5-(trifluoromethyl)pyrimidin-2-amine], the IC50 was ≤ 50 nM.
In the case of `CS(=O)(=O)N1CCC(Nc2ncc(C(F)(F)F)c(-c3cn(-c4ccc(Cn5cnnn5)cc4Cl)cn3)n2)CC1` [Example 244, 4-(1-(4-((1H-Tetrazol-1-yl)methyl)-2-chlorophenyl)-1H-imidazol-4-yl)-N-(1-(methylsulfonyl)piperidin-4-yl)-5-(trifluoromethyl)pyrimidin-2-amine] it was ≤ 50 nM; in that of `CNCc1ccc(-n2cnc(-c3nc(NC4CCN(S(C)(=O)=O)CC4)ncc3C(F)(F)F)c2)c(C(F)F)n1` [Example 245, 4-(1-(2-(Difluoromethyl)-6-((methylamino)methyl)pyridin-3-yl)-1H-imidazol-4-yl)-N-(1-(methylsulfonyl)piperidin-4-yl)-5-(trifluoromethyl)pyrimidin-2-amine], ≤ 50 nM.
As for `CN(C)Cc1ccc(-n2cnc(-c3nc(NC4CCN(S(C)(=O)=O)CC4)ncc3C(F)(F)F)c2)c(C(F)(F)F)n1` [Example 246, 4-(1-(6-((Dimethylamino)methyl)-2-(trifluoromethyl)pyridin-3-yl)-1H-imidazol-4-yl)-N-(1-(methylsulfonyl)piperidin-4-yl)-5-(trifluoromethyl)pyrimidin-2-amine], the figure is ≤ 50 nM.
Take `CS(=O)(=O)N1CCC(Nc2ncc(C(F)(F)F)c(-c3cn(-c4ccc(CN5CCC5)nc4C(F)(F)F)cn3)n2)CC1` [Example 247, 4-(1-(6-(Azetidin-1-ylmethyl)-2-(trifluoromethyl)pyridin-3-yl)-1H-imidazol-4-yl)-N-(1-(methylsulfonyl)piperidin-4-yl)-5-(trifluoromethyl)pyrimidin-2-amine]: the IC50 was ≤ 50 nM.
In the case of `CC(O)c1ccc(-n2cnc(-c3nc(NC4CCN(S(C)(=O)=O)CC4)ncc3C(F)(F)F)c2)c(Cl)c1` (centres unmarked) [Example 248, 1-(3-Chloro-4-(4-(2-((1-(methylsulfonyl)piperidin-4-yl)amino)-5-(trifluoromethyl)pyrimidin-4-yl)-1H-imidazol-1-yl)phenyl)ethan-1-ol] it was ≤ 50 nM.
In the case of `CNCc1ccc(-n2cnc(-c3nc(NC4CCN(S(C)(=O)=O)CC4)ncc3C(F)(F)F)c2)c(C#N)c1` [Example 249, 5-((Methylamino)methyl)-2-(4-(2-((1-(methylsulfonyl)piperidin-4-yl)amino)-5-(trifluoromethyl)pyrimidin-4-yl)-1H-imidazol-1-yl)benzonitrile] it was ≤ 50 nM; in that of `CN(C)Cc1ccc(-n2cnc(-c3nc(NC4CCN(S(C)(=O)=O)CC4)ncc3C(F)(F)F)c2)c(C(F)(F)F)c1` [Example 250, 4-(1-(4-((Dimethylamino)methyl)-2-(trifluoromethyl)phenyl)-1H-imidazol-4-yl)-N-(1-(methylsulfonyl)piperidin-4-yl)-5-(trifluoromethyl)pyrimidin-2-amine], ≤ 50 nM; in that of `CS(=O)(=O)N1CCC(Nc2ncc(C(F)(F)F)c(-c3cn(-c4ccc(CN5CCC5)cc4C(F)(F)F)cn3)n2)CC1` [Example 251, 4-(1-(4-(Azetidin-1-ylmethyl)-2-(trifluoromethyl)phenyl)-1H-imidazol-4-yl)-N-(1-(methylsulfonyl)piperidin-4-yl)-5-(trifluoromethyl)pyrimidin-2-amine], ≤ 50 nM.
As for `Cc1nc(CN2CCC2)ccc1-n1cnc(-c2nc(NC3CCN(S(C)(=O)=O)CC3)ncc2C(F)(F)F)c1` [Example 252, 4-(1-(6-(Azetidin-1-ylmethyl)-2-methylpyridin-3-yl)-1H-imidazol-4-yl)-N-(1-(methylsulfonyl)piperidin-4-yl)-5-(trifluoromethyl)pyrimidin-2-amine], the figure is ≤ 50 nM; as for `CN(C)Cc1ccc(-n2cnc(-c3nc(NC4CCN(S(C)(=O)=O)CC4)ncc3C(F)(F)F)c2)c(Cl)c1F` [Example 253, 4-(1-(2-Chloro-4-((dimethylamino)methyl)-3-fluorophenyl)-1H-imidazol-4-yl)-N-(1-(methylsulfonyl)piperidin-4-yl)-5-(trifluoromethyl)pyrimidin-2-amine], ≤ 50 nM.
Take `CNCc1ccc(-n2cnc(-c3nc(NC4CCN(S(C)(=O)=O)CC4)ncc3C(F)(F)F)c2)c(C(F)(F)F)c1` [Example 254, 4-(1-(4-((Methylamino)methyl)-2-(trifluoromethyl)phenyl)-1H-imidazol-4-yl)-N-(1-(methylsulfonyl)piperidin-4-yl)-5-(trifluoromethyl)pyrimidin-2-amine]: the IC50 was ≤ 50 nM.
As for `CCNCc1ccc(-n2cnc(-c3nc(NC4CCN(S(C)(=O)=O)CC4)ncc3C(F)(F)F)c2)c(C(F)(F)F)c1` [Example 255, 4-(1-(4-((Ethylamino)methyl)-2-(trifluoromethyl)phenyl)-1H-imidazol-4-yl)-N-(1-(methylsulfonyl)piperidin-4-yl)-5-(trifluoromethyl)pyrimidin-2-amine], the figure is ≤ 50 nM.
